Reference: article PMC7116955 (Biochimica et Biophysica Acta. General Subjects, 2005)
Entries after “also recorded” stand apart in the source; their conditions may differ.

How the values were obtained:
Conditions in all cases: pH 7.4
Pep HR2 [1] = type: binding, SARS-CoV
Pep 1E [2] = type: binding, SARS-CoV
[3] = type: physicochemical
[4] = type: physicochemical; remark: listed apart in the source
Pep HR2 [5] = type: binding, SARS-CoV; remark: listed apart in the source
Pep 2B [6] = type: binding, SARS-CoV
Pep 2B [7] = type: binding, SARS-CoV; remark: listed apart in the source
Pep 1D = type: binding, SARS-CoV
Pep 1E [8] = type: binding, SARS-CoV; remark: listed apart in the source
[9] = type: physicochemical; remark: listed apart in the source

## WQEWEQKITALLEQAQIQQEKNEYELQKLDKWASLWEWF [Pep T-1249]
Pep HR2 [1]
  fluorescence emission intensity variation on titration with Pep HR2: The same occurs for T-1249, although the results are not so evident
Pep 1E [2]
  fluorescence emission intensity variation on titration with Pep 1E: The same occurs for T-1249, although the results are not so evident
[3]
  self-aggregation by ANS fluorescence: self-aggregate
[4]
  interaction with membranes: most extensive interaction with membranes
Pep HR2 [5]
  ANS fluorescence / interaction with Pep HR2: no evidence of interaction
Pep 2B [6]
  ANS fluorescence / interaction with Pep 2B: no evidence of interaction
Pep 2B [7]
  fluorescence emission intensity variation on titration with Pep 2B: Fluorescence variation was not detected
Pep 1D
  ANS fluorescence increase / interaction with Pep 1D, S peptide added: exhibit a larger variability; also recorded: low signal/noise ratios, preventing straightforward conclusions
Pep 1E [8]
  ANS fluorescence / interaction with Pep 1E: does not interact
[9]
  membrane partition in presence of Pep 1D: The same occurs
  membrane partition in presence of Pep 1E: The same occurs
  membrane partition in presence of Pep 2B: no difference occurs
  membrane partition in presence of Pep HR2: no difference occurs
